Measured values from US7015218B1, “Amide compounds and medicinal use thereof” (Mitsubishi Pharma Corporation, priority 1999, dated 2006).

Tested on: DBA/1J mouse
Assay: Type II collagen induced arthritis in DBA/1J mouse
Format: in vivo
Procedure: An emulsion was prepared by mixing bovine type II collagen (100–200 μg, purchased from Collagen Gizyutsu Kensyukai) with Freund's complete adjuvant (Sigma) containing dead tubercle bacillus H37Ra was given to 6–7 week-old male DBA/1J mice (Charles River Japan) subcutaneously from the root of the tail for immunization twice at 3 week intervals, thereby developing arthritis. The compound of the present invention or a pharmaceutically acceptable salt thereof was suspended or dissolved in 0.5% hydroxypropylmethylcellulose and orally administered repeatedly at the dose of 0.01–100 mg/kg body weight using an oral sound for 6 weeks from the first immunization. This model was evaluated for the symptoms of arthritis in the four limbs according to the following criteria in 0 to 4 scores. The arthritis score of each mouse was expressed by the total of the scores of the four limbs (maximum:16 points), and when the total score was 1 or more, the onset of arthritis was acknowledged.
The thickness of the four limbs of the mouse was measured with vernier calipers and the total score of the four limbs was used as an index of arthritis. Using a soft X-ray photography (OHMIC co.), the four limbs were X rayed to evaluate the level of destruction of the joints. […]

## Cc1c(C(=O)Nc2ccc(C(F)(F)F)cc2)cnn1-c1ccc(F)cc1 [1-(4-fluorophenyl)-N-(4-trifluoromethylphenyl)-5-methylpyrazole-4-carboxamide]
Repeat oral administration at 10 mg/kg body weight
  improvement of severity of developed arthritis, swelling of four limbs or joint destruction: did not improve
Repeat oral administration at 30 mg/kg body weight
  death incidence: death incidence was confirmed
